Key:
[1] = tested on: Echinochloa oryzoides (Ard.) Fritsch.; assay: Preemergence weed control under flooded paddy conditions, ECHORC (Watergrass (Calif.)); assay type: in vivo; conditions: flooded paddy; for ECHORC: herbicidal effect rating 0-9, three to four weeks after treatment; as to herbicidal effect rating, ECHORC: meaning of each grade not given here
[2] = tested on: Cyperus serotinus, Rottb.; assay: Preemergence weed control under flooded paddy conditions, CYPSE (Flatsedge); assay type: in vivo; conditions: for CYPSE: herbicidal effect rating 0-9, three to four weeks after treatment; as to herbicidal effect rating, CYPSE: meaning of each grade not given here
Sagittaria pygmaea, L. = assay: Preemergence weed control under flooded paddy conditions, SAGPY (Arrowhead (Pygmaea)); assay type: in vivo; conditions: flooded paddy; for SAGPY: herbicidal effect rating 0-9, three to four weeks after treatment; as to herbicidal effect rating, SAGPY: meaning of each grade not given here
[3] = tested on: Oryza sativa, (L.) Tebonnet; assay: Rice tolerance to post-transplant applications under flooded paddy conditions (Example 187), ORYSAT (Rice, Tebonnet); conditions: for ORYSAT: herbicidal effect rating 0-9, three to four weeks after treatment; as to herbicidal effect rating ORYSAT: meaning of each grade not given here
Cyperus iria = assay: Preemergence weed control under flooded paddy conditions, CYPIR (Rice Flatsedge); assay type: in vivo; conditions: flooded paddy; for CYPIR: herbicidal effect rating 0-9, three to four weeks after treatment; as to herbicidal effect rating, CYPIR: meaning of each grade not given here
[4] = tested on: Monochoria vaginalis, Presl.; assay: Preemergence weed control under flooded paddy conditions, MOOVA (Monochoria); assay type: in vivo; conditions: flooded paddy; for MOOVA: herbicidal effect rating 0-9, three to four weeks after treatment; as to herbicidal effect rating, MOOVA: meaning of each grade not given here
[5] = 0.0320 kg/ha, preemergence weeds
[6] = 0.0620 kg/ha, preemergence weeds
[7] = 0.1250 kg/ha, preemergence weeds
[8] = 0.2500 kg/ha, preemergence weeds
[9] = Rate 0.0320 kg/ha, preemergence, rated three to four weeks after treatment
[10] = Rate 0.0620 kg/ha, preemergence, rated three to four weeks after treatment
[11] = Rate 0.1250 kg/ha, preemergence, rated three to four weeks after treatment
[12] = Rate 0.2500 kg/ha, preemergence, rated three to four weeks after treatment
[13] = 0.0313 kg/ha, preemergence, rated three to four weeks after treatment
[14] = 0.0625 kg/ha, preemergence, rated three to four weeks after treatment
[15] = 0.1250 kg/ha, preemergence, rated three to four weeks after treatment
[16] = 0.2500 kg/ha, preemergence, rated three to four weeks after treatment
[17] = 0.0313 kg/ha, rated three to four weeks after treatment
[18] = 0.0625 kg/ha, rated three to four weeks after treatment
[19] = 0.1250 kg/ha, rated three to four weeks after treatment
[20] = 0.2500 kg/ha, rated three to four weeks after treatment
[21] = 0.0313 kg/ha, preemergence weeds, rated three to four weeks after treatment
[22] = 0.0625 kg/ha, preemergence weeds, rated three to four weeks after treatment
[23] = 0.1250 kg/ha, preemergence weeds, rated three to four weeks after treatment
[24] = 0.2500 kg/ha, preemergence weeds, rated three to four weeks after treatment
[25] = Rate 0.0320 kg/ha, preemergence, rated 3-4 weeks after treatment
[26] = Rate 0.0620 kg/ha, preemergence, rated 3-4 weeks after treatment
[27] = Rate 0.1250 kg/ha, preemergence, rated 3-4 weeks after treatment
[28] = Rate 0.2500 kg/ha, preemergence, rated 3-4 weeks after treatment
[29] = Rate 0.5000 kg/ha, preemergence, rated 3-4 weeks after treatment

## Cn1c(C(F)(F)F)cc(=O)n(-c2ccc3snc(C(=O)OCCCO)c3c2)c1=O [Example 410, 1,2-Benzisothiazole-3-carboxylic acid, 5-[3,6-dihydro-3-methyl-2,6-dioxo-4-(trifluoromethyl)-1(2H)-pyrimidinyl]-, 3-hydroxypropyl ester]
[1]; [5]
  ECHORC: 0.0
[1]; [6]
  ECHORC: 0.0
[1]; [7]
  ECHORC: 9.0
[1]; [8]
  ECHORC: 9.0
[2]; [5]
  CYPSE: 2.0
[2]; [6]
  CYPSE: 5.0
[2]; [7]
  CYPSE: 9.0
[2]; [8]
  CYPSE: 9.0
Sagittaria pygmaea, L.; [5]
  SAGPY: 3.0
Sagittaria pygmaea, L.; [6]
  SAGPY: 7.0
Sagittaria pygmaea, L.; [7]
  SAGPY: 9.0
Sagittaria pygmaea, L.; [8]
  SAGPY: 9.0
[3]; 0.0320 kg/ha
  ORYSAT: 0.0
[3]; 0.0620 kg/ha
  ORYSAT: 3.0
[3]; 0.1250 kg/ha
  ORYSAT: 5.0
[3]; 0.2500 kg/ha
  ORYSAT: 7.0
Cyperus iria; [5]
  CYPIR: 9.0
Cyperus iria; [6]
  CYPIR: 9.0
Cyperus iria; [7]
  CYPIR: 9.0
Cyperus iria; [8]
  CYPIR: 9.0
[4]; [5]
  MOOVA: 9.0
[4]; [6]
  MOOVA: 9.0
[4]; [7]
  MOOVA: 9.0
[4]; [8]
  MOOVA: 9.0

## Cn1c(C(F)(F)F)cc(=O)n(-c2ccc3snc(C(=O)NS(=O)(=O)c4ccc5ccccc5c4)c3c2)c1=O [Example 357, 1,2-Benzisothiazole-3-carboxamide, 5-[3,6-dihydro-3-methyl-2,6-dioxo-4-(trifluoromethyl)-1(2H)-pyrimidinyl]-N-(2-naphthylsulfonyl)-]
[1]; [9]
  herbicidal effect rating, ECHORC: 4.0
[1]; [10]
  herbicidal effect rating, ECHORC: 5.0
[1]; [11]
  herbicidal effect rating, ECHORC: 5.0
[1]; [12]
  herbicidal effect rating, ECHORC: 7.0
[2]; [9]
  herbicidal effect rating, CYPSE: 0.0
[2]; [10]
  herbicidal effect rating, CYPSE: 0.0
[2]; [11]
  herbicidal effect rating, CYPSE: 0.0
[2]; [12]
  herbicidal effect rating, CYPSE: 0.0
Sagittaria pygmaea, L.; [9]
  herbicidal effect rating, SAGPY: 0.0
Sagittaria pygmaea, L.; [10]
  herbicidal effect rating, SAGPY: 0.0
Sagittaria pygmaea, L.; [11]
  herbicidal effect rating, SAGPY: 0.0
Sagittaria pygmaea, L.; [12]
  herbicidal effect rating, SAGPY: 4.0
[3]; Rate 0.0320 kg/ha, rated three to four weeks after treatment
  herbicidal effect rating ORYSAT: 2.0
[3]; Rate 0.0620 kg/ha, rated three to four weeks after treatment
  herbicidal effect rating ORYSAT: 2.0
[3]; Rate 0.1250 kg/ha, rated three to four weeks after treatment
  herbicidal effect rating ORYSAT: 2.0
[3]; Rate 0.2500 kg/ha, rated three to four weeks after treatment
  herbicidal effect rating ORYSAT: 3.0
Cyperus iria; [9]
  herbicidal effect rating, CYPIR: 0.0
Cyperus iria; [10]
  herbicidal effect rating, CYPIR: 0.0
Cyperus iria; [11]
  herbicidal effect rating, CYPIR: 2.0
Cyperus iria; [12]
  herbicidal effect rating, CYPIR: 6.0
[4]; [9]
  herbicidal effect rating, MOOVA: 9.0
[4]; [10]
  herbicidal effect rating, MOOVA: 9.0
[4]; [11]
  herbicidal effect rating, MOOVA: 9.0
[4]; [12]
  herbicidal effect rating, MOOVA: 9.0

## Cc1ccc(OC(C)C#N)c(-c2nsc3ccc(-n4c(=O)cc(C(F)(F)F)n(C)c4=O)cc23)c1 (centres unmarked) [Example 58, 3-{3-[6-(1-Cyanoethoxy)-m-tolyl]-1,2-benzisothiazol-5-yl}-1-methyl-6-(trifluoromethyl)-2,4(1H,3H)-pyrimidinedione]
[1]; [13]
  herbicidal effect rating, ECHORC: 9.0
[1]; [14]
  herbicidal effect rating, ECHORC: 9.0
[1]; [15]
  herbicidal effect rating, ECHORC: 9.0
[1]; [16]
  herbicidal effect rating, ECHORC: 9.0
[2]; [13]
  herbicidal effect rating, CYPSE: 0.0
[2]; [14]
  herbicidal effect rating, CYPSE: 0.0
[2]; [15]
  herbicidal effect rating, CYPSE: 0.0
[2]; [16]
  herbicidal effect rating, CYPSE: 0.0
Sagittaria pygmaea, L.; [13]
  herbicidal effect rating, SAGPY: 0.0
Sagittaria pygmaea, L.; [14]
  herbicidal effect rating, SAGPY: 0.0
Sagittaria pygmaea, L.; [15]
  herbicidal effect rating, SAGPY: 0.0
Sagittaria pygmaea, L.; [16]
  herbicidal effect rating, SAGPY: 0.0
[3]; [17]
  herbicidal effect rating, ORYSAT (rice tolerance): 2.0
[3]; [18]
  herbicidal effect rating, ORYSAT (rice tolerance): 2.0
[3]; [19]
  herbicidal effect rating, ORYSAT (rice tolerance): 3.0
[3]; [20]
  herbicidal effect rating, ORYSAT (rice tolerance): 5.0
Cyperus iria; [13]
  herbicidal effect rating, CYPIR: 9.0
Cyperus iria; [14]
  herbicidal effect rating, CYPIR: 9.0
Cyperus iria; [15]
  herbicidal effect rating, CYPIR: 9.0
Cyperus iria; [16]
  herbicidal effect rating, CYPIR: 9.0
[4]; [13]
  herbicidal effect rating, MOOVA: 9.0
[4]; [14]
  herbicidal effect rating, MOOVA: 9.0
[4]; [15]
  herbicidal effect rating, MOOVA: 9.0
[4]; [16]
  herbicidal effect rating, MOOVA: 9.0

## COCCOC(=O)COc1ccc(C)cc1-c1nsc2ccc(-n3c(=O)cc(C(F)(F)F)n(C)c3=O)cc12 [Example 191, 2-Methoxyethyl {{2-{5-[3,6-dihydro-3-methyl-2,6-dioxo-4-(trifluoromethyl)-1(2H)-pyrimidinyl]-1,2-benzisothiazol-3-yl}-p-tolyl}oxy}acetate]
[1]; [21]
  herbicidal effect rating, ECHORC: 0.0
[1]; [22]
  herbicidal effect rating, ECHORC: 2.0
[1]; [23]
  herbicidal effect rating, ECHORC: 4.0
[1]; [24]
  herbicidal effect rating, ECHORC: 7.0
[2]; [21]
  herbicidal effect rating, CYPSE: 0.0
[2]; [22]
  herbicidal effect rating, CYPSE: 0.0
[2]; [23]
  herbicidal effect rating, CYPSE: 0.0
Sagittaria pygmaea, L.; [21]
  herbicidal effect rating, SAGPY: 0.0
Sagittaria pygmaea, L.; [22]
  herbicidal effect rating, SAGPY: 0.0
Sagittaria pygmaea, L.; [23]
  herbicidal effect rating, SAGPY: 0.0
Sagittaria pygmaea, L.; [24]
  herbicidal effect rating, SAGPY: 0.0
[3]; [17]
  herbicidal effect rating, ORYSAT (rice tolerance): 1.0
[3]; [18]
  herbicidal effect rating, ORYSAT (rice tolerance): 2.0
[3]; [19]
  herbicidal effect rating, ORYSAT (rice tolerance): 3.0
[3]; [20]
  herbicidal effect rating, ORYSAT (rice tolerance): 6.0
Cyperus iria; [21]
  herbicidal effect rating, CYPIR: 0.0
Cyperus iria; [22]
  herbicidal effect rating, CYPIR: 0.0
Cyperus iria; [23]
  herbicidal effect rating, CYPIR: 2.0
Cyperus iria; [24]
  herbicidal effect rating, CYPIR: 4.0
[4]; [21]
  herbicidal effect rating, MOOVA: 9.0
[4]; [22]
  herbicidal effect rating, MOOVA: 9.0
[4]; [23]
  herbicidal effect rating, MOOVA: 9.0
[4]; [24]
  herbicidal effect rating, MOOVA: 9.0

## Cc1ccc(OC(C)(C)C(=O)OCC(F)(F)F)c(-c2nsc3ccc(-n4c(=O)cc(C(F)(F)F)n(C)c4=O)cc23)c1 [Example 545, Propionic acid, 2-{{2-{5-[3,6-dihydro-3-methyl-2,6-dioxo-4-(trifluoromethyl)-1(2H)-pyrimidinyl]-1,2-benzisothiazol-3-yl}-p-tolyl}oxy}-2-methyl-, 2,2,2-trifluoroethyl ester]
[1]; [25]
  herbicidal effect rating, ECHORC: 5.6
[1]; [26]
  herbicidal effect rating, ECHORC: 6.6
[1]; [27]
  herbicidal effect rating, ECHORC: 7.0
[1]; [28]
  herbicidal effect rating, ECHORC: 9.0
[1]; [29]
  herbicidal effect rating, ECHORC: 9.0
[2]; [25]
  herbicidal effect rating, CYPSE: 0.0
[2]; [26]
  herbicidal effect rating, CYPSE: 0.0
[2]; [27]
  herbicidal effect rating, CYPSE: 9.0
[2]; [28]
  herbicidal effect rating, CYPSE: 9.0
[2]; [29]
  herbicidal effect rating, CYPSE: 6.0
Sagittaria pygmaea, L.; [25]
  herbicidal effect rating, SAGPY: 0.0
Sagittaria pygmaea, L.; [26]
  herbicidal effect rating, SAGPY: 0.0
Sagittaria pygmaea, L.; [27]
  herbicidal effect rating, SAGPY: 4.0
Sagittaria pygmaea, L.; [28]
  herbicidal effect rating, SAGPY: 7.0
Sagittaria pygmaea, L.; [29]
  herbicidal effect rating, SAGPY: 9.0
[3]; Rate 0.0320 kg/ha, rated 3-4 weeks after treatment
  herbicidal effect rating ORYSAT: 2.0
[3]; Rate 0.0620 kg/ha, rated 3-4 weeks after treatment
  herbicidal effect rating ORYSAT: 2.0
[3]; Rate 0.1250 kg/ha, rated 3-4 weeks after treatment
  herbicidal effect rating ORYSAT: 4.0
[3]; Rate 0.2500 kg/ha, rated 3-4 weeks after treatment
  herbicidal effect rating ORYSAT: 9.0
[3]; Rate 0.5000 kg/ha, rated 3-4 weeks after treatment
  herbicidal effect rating ORYSAT: 9.0
Cyperus iria; [25]
  herbicidal effect rating, CYPIR: 4.0
Cyperus iria; [26]
  herbicidal effect rating, CYPIR: 5.0
Cyperus iria; [27]
  herbicidal effect rating, CYPIR: 6.0
Cyperus iria; [28]
  herbicidal effect rating, CYPIR: 7.0
Cyperus iria; [29]
  herbicidal effect rating, CYPIR: 9.0
[4]; [25]
  herbicidal effect rating, MOOVA: 6.0
[4]; [26]
  herbicidal effect rating, MOOVA: 7.0
[4]; [27]
  herbicidal effect rating, MOOVA: 9.0
[4]; [28]
  herbicidal effect rating, MOOVA: 9.0
[4]; [29]
  herbicidal effect rating, MOOVA: 9.0

— EP0908457B1, “3-(1,2-benzisothiazol- and isoxazol-5-Y1)-2,4(1H,3H)-pyrimidinedione or thione and 3-(1,2-benzisothiazol- and isoxazol-5-y1)-4(3H)-pyrimidinone or thione herbicidal agents” (BASF AKTIENGESELLSCHAFT, priority 1997, dated 1999)
